# Assay results published in ChEMBL document CHEMBL1201862, “PubChem BioAssay data set” (2004).
#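 Step 1: Grow cells in 96-well plates. Step 2: Expose to compound for 48 hours at 5 concentrations. Step 3: Interpolate endpoints linearly; if unreached, use highest concentration. The concentration for 50% growth inhibition is given as GI50.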 Active and inactive are the calls of the source. No stated cut-off is given here; in the data, active = GI50 up to about 1.1 µM and inactive = higher.
# Key:
# Assay in all cases: DTP human tumour cell line panel, 48 h
# MOLT-4 = test system: MOLT-4
# CCRF-CEM = test system: CCRF-CEM
# HCC 2998 = test system: HCC 2998
# RXF 393 = test system: RXF 393
# M19-MEL = test system: M19-MEL
# HCT-15 = test system: HCT-15
# EKVX = test system: EKVX
# NCI-H522 = test system: NCI-H522
# U-251 = test system: U-251
# UACC-257 = test system: UACC-257
# KM12 = test system: KM12
# OVCAR-3 = test system: OVCAR-3
# IGROV-1 = test system: IGROV-1
# 786-0 = test system: 786-0
# SF-268 = test system: SF-268
# SNB-75 = test system: SNB-75
# A498 = test system: A498
# OVCAR-5 = test system: OVCAR-5
# SK-OV-3 = test system: SK-OV-3
# TK-10 = test system: TK-10
# HCT-116 = test system: HCT-116
# UACC-62 = test system: UACC-62
# SK-MEL-28 = test system: SK-MEL-28
# SF-295 = test system: SF-295
# ACHN = test system: ACHN
# SK-MEL-2 = test system: SK-MEL-2
# DMS-114 = test system: DMS-114
# SW-620 = test system: SW-620
# RPMI-8226 = test system: RPMI-8226
# Malme-3M = test system: Malme-3M
# NCI-H226 = test system: NCI-H226
# HT-29 = test system: HT-29
# NCI-H460 = test system: NCI-H460
# KM-20L2 = test system: KM-20L2
# NCI-H23 = test system: NCI-H23
# A549 = test system: A549
# SR = test system: SR
# LOX IMVI = test system: LOX IMVI
# SNB-19 = test system: SNB-19
# DLD-1 = test system: DLD-1
# SF-539 = test system: SF-539
# SNB-78 = test system: SNB-78
# UO-31 = test system: UO-31
# SK-MEL-5 = test system: SK-MEL-5
# RXF 631 = test system: RXF 631
# HOP-62 = test system: HOP-62
# HOP-92 = test system: HOP-92
# SN12C = test system: SN12C
# M14 = test system: M14
# OVCAR-4 = test system: OVCAR-4
# HOP-18 = test system: HOP-18
# K562 = test system: K562
# COLO 205 = test system: COLO 205
# CAKI-1 = test system: CAKI-1
# DMS-273 = test system: DMS-273
# HL-60 = test system: HL-60
# LXFL 529 = test system: LXFL 529
# OVCAR-8 = test system: OVCAR-8
smiles,measurement,setting,value
CC(C(=O)c1ccccc1)C1(O)C(=O)Nc2ccccc21 (centres undefined),GI50,MOLT-4,> 100 µM (inactive)
same,GI50,CCRF-CEM,> 100 µM (inactive)
same,GI50,HCC 2998,> 100 µM (inactive)
same,GI50,RXF 393,> 100 µM (inactive)
same,GI50,M19-MEL,> 100 µM (inactive)
same,GI50,HCT-15,> 100 µM
same,GI50,EKVX,> 100 µM (inactive)
same,GI50,NCI-H522,> 100 µM (inactive)
same,GI50,U-251,> 100 µM (inactive)
same,GI50,UACC-257,> 100 µM (inactive)
same,GI50,KM12,> 100 µM (inactive)
same,GI50,OVCAR-3,> 100 µM (inactive)
same,GI50,IGROV-1,> 100 µM (inactive)
same,GI50,786-0,> 100 µM (inactive)
same,GI50,SF-268,> 100 µM (inactive)
same,GI50,SNB-75,> 100 µM (inactive)
same,GI50,A498,> 100 µM (inactive)
same,GI50,OVCAR-5,> 100 µM (inactive)
same,GI50,SK-OV-3,> 100 µM (inactive)
same,GI50,TK-10,> 100 µM (inactive)
same,GI50,HCT-116,> 100 µM (inactive)
same,GI50,UACC-62,> 100 µM (inactive)
same,GI50,SK-MEL-28,> 100 µM (inactive)
same,GI50,SF-295,> 100 µM (inactive)
same,GI50,ACHN,> 100 µM (inactive)
same,GI50,SK-MEL-2,> 100 µM (inactive)
same,GI50,DMS-114,> 100 µM (inactive)
same,GI50,SW-620,> 100 µM (inactive)
same,GI50,RPMI-8226,> 100 µM (inactive)
same,GI50,Malme-3M,> 100 µM (inactive)
same,GI50,NCI-H226,> 100 µM (inactive)
same,GI50,HT-29,> 100 µM (inactive)
same,GI50,NCI-H460,> 100 µM (inactive)
same,GI50,KM-20L2,> 100 µM (inactive)
same,GI50,NCI-H23,> 100 µM (inactive)
same,GI50,A549,> 100 µM (inactive)
same,GI50,SR,> 100 µM (inactive)
same,GI50,LOX IMVI,> 100 µM (inactive)
same,GI50,SNB-19,> 100 µM (inactive)
same,GI50,DLD-1,> 100 µM (inactive)
same,GI50,SF-539,> 100 µM (inactive)
same,GI50,SNB-78,> 100 µM (inactive)
same,GI50,UO-31,> 100 µM (inactive)
same,GI50,SK-MEL-5,> 100 µM (inactive)
same,GI50,RXF 631,> 100 µM (inactive)
same,GI50,HOP-62,> 100 µM (inactive)
same,GI50,HOP-92,> 100 µM (inactive)
same,GI50,SN12C,> 100 µM (inactive)
same,GI50,M14,> 100 µM (inactive)
same,GI50,OVCAR-4,> 100 µM (inactive)
same,GI50,HOP-18,> 100 µM (inactive)
same,GI50,K562,> 100 µM (inactive)
same,GI50,COLO 205,> 100 µM (inactive)
same,GI50,CAKI-1,> 100 µM (inactive)
same,GI50,DMS-273,> 100 µM (inactive)
CCOC(=O)/C(C#N)=C/c1[nH]c(C(=O)OCc2ccccc2)c(C)c1C,GI50,MOLT-4,> 100 µM (inactive)
same,GI50,CCRF-CEM,> 100 µM (inactive)
same,GI50,HCC 2998,> 100 µM (inactive)
same,GI50,RXF 393,> 100 µM (inactive)
same,GI50,M19-MEL,> 100 µM (inactive)
same,GI50,HCT-15,> 100 µM
same,GI50,EKVX,> 100 µM (inactive)
same,GI50,NCI-H522,> 100 µM (inactive)
same,GI50,U-251,> 100 µM (inactive)
same,GI50,UACC-257,> 100 µM (inactive)
same,GI50,KM12,> 100 µM (inactive)
same,GI50,OVCAR-3,> 100 µM (inactive)
same,GI50,IGROV-1,> 100 µM (inactive)
same,GI50,786-0,> 100 µM (inactive)
same,GI50,SF-268,> 100 µM (inactive)
same,GI50,SNB-75,> 100 µM (inactive)
same,GI50,OVCAR-5,> 100 µM (inactive)
same,GI50,SK-OV-3,> 100 µM (inactive)
same,GI50,TK-10,> 100 µM (inactive)
same,GI50,UACC-62,> 100 µM (inactive)
same,GI50,SK-MEL-28,> 100 µM (inactive)
same,GI50,SF-295,> 100 µM (inactive)
same,GI50,ACHN,> 100 µM (inactive)
same,GI50,SK-MEL-2,> 100 µM (inactive)
same,GI50,DMS-114,> 100 µM (inactive)
same,GI50,SW-620,> 100 µM (inactive)
same,GI50,RPMI-8226,> 100 µM (inactive)
same,GI50,Malme-3M,> 100 µM (inactive)
same,GI50,HT-29,> 100 µM (inactive)
same,GI50,NCI-H460,> 100 µM (inactive)
same,GI50,KM-20L2,> 100 µM (inactive)
same,GI50,NCI-H23,> 100 µM (inactive)
same,GI50,A549,> 100 µM (inactive)
same,GI50,LOX IMVI,> 100 µM (inactive)
same,GI50,HL-60,> 100 µM (inactive)
same,GI50,SNB-19,> 100 µM (inactive)
same,GI50,DLD-1,> 100 µM (inactive)
same,GI50,SF-539,> 100 µM (inactive)
same,GI50,UO-31,> 100 µM (inactive)
same,GI50,SK-MEL-5,30.3 µM (inactive)
same,GI50,RXF 631,> 100 µM (inactive)
same,GI50,HOP-62,> 100 µM (inactive)
same,GI50,HOP-92,78.9 µM (inactive)
same,GI50,SN12C,> 100 µM (inactive)
same,GI50,LXFL 529,> 100 µM (inactive)
same,GI50,M14,> 100 µM (inactive)
same,GI50,OVCAR-8,> 100 µM (inactive)
same,GI50,OVCAR-4,> 100 µM (inactive)
same,GI50,HOP-18,> 100 µM (inactive)
same,GI50,K562,> 100 µM (inactive)
same,GI50,COLO 205,> 100 µM (inactive)
same,GI50,CAKI-1,> 100 µM (inactive)
same,GI50,DMS-273,> 100 µM (inactive)
Cc1ccc(Nc2ccc(Nc3ccc(C)cc3S(=O)(=O)O)c3c2C(=O)c2ccccc2C3=O)c(S(=O)(=O)O)c1,GI50,MOLT-4,> 100 µM (inactive)
same,GI50,CCRF-CEM,> 100 µM (inactive)
same,GI50,HCC 2998,> 100 µM (inactive)
same,GI50,RXF 393,> 100 µM (inactive)
same,GI50,HCT-15,> 100 µM
same,GI50,EKVX,> 100 µM (inactive)
same,GI50,NCI-H522,> 100 µM (inactive)
same,GI50,U-251,> 100 µM (inactive)
same,GI50,UACC-257,> 100 µM (inactive)
same,GI50,KM12,> 100 µM (inactive)
same,GI50,OVCAR-3,> 100 µM (inactive)
same,GI50,IGROV-1,> 100 µM (inactive)
same,GI50,786-0,> 100 µM (inactive)
same,GI50,SF-268,> 100 µM (inactive)
same,GI50,SNB-75,94.6 µM (inactive)
same,GI50,A498,> 100 µM (inactive)
same,GI50,SK-OV-3,> 100 µM (inactive)
same,GI50,TK-10,> 100 µM (inactive)
same,GI50,HCT-116,> 100 µM (inactive)
same,GI50,UACC-62,> 100 µM (inactive)
same,GI50,SK-MEL-28,> 100 µM (inactive)
same,GI50,ACHN,> 100 µM (inactive)
same,GI50,SK-MEL-2,> 100 µM (inactive)
same,GI50,DMS-114,> 100 µM (inactive)
same,GI50,SW-620,> 100 µM (inactive)
same,GI50,RPMI-8226,> 100 µM (inactive)
same,GI50,Malme-3M,> 100 µM (inactive)
same,GI50,NCI-H226,> 100 µM (inactive)
same,GI50,NCI-H460,> 100 µM (inactive)
same,GI50,KM-20L2,> 100 µM (inactive)
same,GI50,A549,> 100 µM (inactive)
same,GI50,SR,> 100 µM (inactive)
same,GI50,HL-60,> 100 µM (inactive)
same,GI50,SNB-19,> 100 µM (inactive)
same,GI50,DLD-1,> 100 µM (inactive)
same,GI50,SF-539,> 100 µM (inactive)
same,GI50,SNB-78,> 100 µM (inactive)
same,GI50,UO-31,> 100 µM (inactive)
same,GI50,SK-MEL-5,> 100 µM (inactive)
same,GI50,RXF 631,> 100 µM (inactive)
same,GI50,HOP-62,> 100 µM (inactive)
same,GI50,SN12C,> 100 µM (inactive)
same,GI50,LXFL 529,> 100 µM (inactive)
same,GI50,M14,> 100 µM (inactive)
same,GI50,OVCAR-8,> 100 µM (inactive)
same,GI50,OVCAR-4,> 100 µM (inactive)
same,GI50,HOP-18,> 100 µM (inactive)
same,GI50,K562,> 100 µM (inactive)
same,GI50,COLO 205,> 100 µM (inactive)
same,GI50,CAKI-1,> 100 µM (inactive)
same,GI50,DMS-273,> 100 µM (inactive)
